Results as given in US7056941B1 (priority 1997, dated 2006).

Structure (SMILES): Cc1nn(C)c(=O)n1-c1ccccc1COc1ccn(-c2ccc(Cl)cc2)n1
- melting point: 107 to 109 °C
